From paper PMC11173002, “A Humanized CB1R Yeast Biosensor Enables Facile Screening of Cannabinoid Compounds” (International Journal of Molecular Sciences, 2024)
pEC50: −log10 of the molar value. “Also recorded” adds a separate entry of the source. Where two headings read alike, the source gives them in different places.

Columns and labels:
Type in all cases: cell-based
[1] = target: T1, CB1 Cannabinoid Receptor (Homo sapiens, UniProt P21554); assay: Mammalian cell calcium assay (Gα15, Fluo-8 fluorescence); conditions: high concentrations (10 μM), four-point dose response
T1 construct: Since the human CB1R strain uses the full-length receptor; host or cells: Ready-to-Assay CB1 Cannabinoid Receptor Frozen Cells (commercial human cell line with promiscuous Gα15, division-arrested)
Protocol: To validate the findings and further evaluate the performance of our yeast screening assay, we retested a subset of our library in a conventional mammalian cell assay. We acquired human cell lines depleted of native GPCRs and containing the promiscuous Gα15, wherein GPCR activation triggers intracellular calcium release, which is measured by Fluo-8 fluorescence (see Section 4). We selected eight compounds for side-by-side testing between the yeast and human host for CB1R (Figure 4a–d). To maximize the number of compounds tested per plate, we performed a limited four-point dose response on the mammalian cells (Figure 4a,b).
Mammalian cell assays were performed in Eurofins Ready-to-Assay™ CB1 Cannabinoid Receptor Frozen Cells. Cells were division-arrested, which limited the number of samples that could be measured, so a limited 4-point dose response was performed. Cells were seeded in 96-well plates and grown for 24 h. Cells were washed with Hank’s Balanced Salt Solution (HBSS) with 20 mM HEPES and 2.5 mM Probenecid at pH 7.4. […] Cells with dye were incubated at 37 °C for 1 h before fluorescent measurement on a Flexstation 3-plate reader (Molecular Devices, San Jose, CA, USA). Baseline fluorescence was measured for 10 s before 50 μL ligands were injected into 100 μL cells. Samples were measured for 180 s and recorded values were measured as ΔF/F0 (Fmax − Fmin/Fmin).

[2] = target: T2, syn-pre-pro-Δ89-CB1R (Homo sapiens, UniProt P21554); assay: cell-based; conditions: for EC50 values / activity in words: PINACA agonist series
T2 construct: expressed in transfected cells; host or cells: Saccharomyces cerevisiae BY4741-derived ZsGreen reporter strain (Gpa1-Gαi3 chimera; also sterol-modified strains ST01–ST15)

[3] = target: T2, syn-pre-pro-Δ89-CB1R; assay: syn-pre-pro-Δ89-CB1R dose response in sterol-modified yeast strains ST01–ST15
From the text: Ergosterol and cholesterol share a common zymosterol precursor that can be converted to cholesterol through a four-enzyme pathway that produces seven downstream metabolites (Figure 2b). We recently replaced the native yeast sterol pathway with cholesterol biosynthesis enzymes to create a small library of yeast strains that produce varying levels of these seven metabolites in the GpaI-Gai3 chimeric ZsGreen human GPCR reporter strain [30]. The syn-pre-pro-Δ89-CB1R expression construct was transformed into fifteen strains (ST01–ST15, Figure 2c, Supplementary Table S1) selected to cover the metabolic and structural sterol space. We then performed dose response experiments with ACEA and measured the ZsGreen via fluorescent cytometry.
Yeast colonies were picked and grown overnight to saturation in pH 5.8 SD-His media in a 2.2 mL deep well plate (Axygen, Corning, NY, USA), grown in a plate-shaking incubator (30 °C, 1000 rpm, 3 mm orbital). In the morning, cultures were diluted to 1:10 or 1:25 in SD-His media buffered to pH 7.1 with 100 mM MOPSO (unless otherwise specified). Ligands were added to the culture and incubated with shaking for 8 h. Cells were then washed three times with ice-cold Tris buffer (pH 7) and diluted to 1:20 for cytometry. All cytometry was performed on a Sony SA3800 spectral analyzer. Each sample was tested for 10,000 events and read at a rate of 1000 events per second. All assays as reported here were filtered only for singlet populations.

[4] = target: T3, WT CB1R (Homo sapiens, UniProt P21554)
T3 construct: expressed in transfected cells; host or cells: Saccharomyces cerevisiae BY4741-derived ZsGreen reporter strain (Gpa1-Gαi3 chimera)

[5] = target: T4, Δ89-CB1R (Homo sapiens, UniProt P21554); assay: Yeast ZsGreen reporter strain with N-terminally truncated CB1R
T4 construct: expressed in transfected cells; host or cells: Saccharomyces cerevisiae BY4741-derived ZsGreen reporter strain (Gpa1-Gαi3 chimera)

[6] = target: T5, Syn-pre-pro CB1R (Homo sapiens, UniProt P21554); assay: Yeast ZsGreen reporter strain with full-length syn-pre-pro CB1R
T5 construct: expressed in transfected cells; host or cells: Saccharomyces cerevisiae BY4741-derived ZsGreen reporter strain (Gpa1-Gαi3 chimera)

[7] = FUBINACA and PINACA compounds, 8 h, n = 3 (Figure 3), read-out: EC50, dose response
[8] = Supplementary Table S2, read-out: EC50 (M) Yeast CB1R
[9] = read-out: EC50, ACEA dose response
[10] = compound at 10 nM, screen, n = 1

T2 sequence (P21554 90-472 limits assumed, stated change not applied): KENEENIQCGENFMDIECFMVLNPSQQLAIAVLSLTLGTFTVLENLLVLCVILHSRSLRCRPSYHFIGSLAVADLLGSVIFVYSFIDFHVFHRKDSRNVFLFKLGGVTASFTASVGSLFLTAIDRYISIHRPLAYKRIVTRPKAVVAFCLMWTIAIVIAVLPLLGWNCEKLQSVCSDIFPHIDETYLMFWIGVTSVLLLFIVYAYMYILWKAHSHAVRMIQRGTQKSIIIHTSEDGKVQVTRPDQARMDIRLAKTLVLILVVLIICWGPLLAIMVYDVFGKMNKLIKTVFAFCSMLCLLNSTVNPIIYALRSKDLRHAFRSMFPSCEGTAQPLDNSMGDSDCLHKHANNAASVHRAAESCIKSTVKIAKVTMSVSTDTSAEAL
T5 sequence (P21554 whole entry): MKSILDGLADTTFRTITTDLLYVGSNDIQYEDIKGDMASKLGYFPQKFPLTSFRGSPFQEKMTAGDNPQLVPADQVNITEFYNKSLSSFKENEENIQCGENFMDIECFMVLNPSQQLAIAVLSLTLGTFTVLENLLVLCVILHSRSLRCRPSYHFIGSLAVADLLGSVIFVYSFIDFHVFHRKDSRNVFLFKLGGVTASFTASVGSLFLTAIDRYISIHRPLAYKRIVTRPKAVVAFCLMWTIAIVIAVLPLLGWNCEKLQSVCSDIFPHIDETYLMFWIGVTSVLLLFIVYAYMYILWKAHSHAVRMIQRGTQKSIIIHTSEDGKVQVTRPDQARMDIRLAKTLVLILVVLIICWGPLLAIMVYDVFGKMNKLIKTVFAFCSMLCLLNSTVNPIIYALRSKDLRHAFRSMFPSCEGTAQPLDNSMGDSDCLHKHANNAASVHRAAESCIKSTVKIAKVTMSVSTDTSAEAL
T3 sequence (P21554 whole entry): as above
T4 sequence (P21554 with tags, fused parts or gaps): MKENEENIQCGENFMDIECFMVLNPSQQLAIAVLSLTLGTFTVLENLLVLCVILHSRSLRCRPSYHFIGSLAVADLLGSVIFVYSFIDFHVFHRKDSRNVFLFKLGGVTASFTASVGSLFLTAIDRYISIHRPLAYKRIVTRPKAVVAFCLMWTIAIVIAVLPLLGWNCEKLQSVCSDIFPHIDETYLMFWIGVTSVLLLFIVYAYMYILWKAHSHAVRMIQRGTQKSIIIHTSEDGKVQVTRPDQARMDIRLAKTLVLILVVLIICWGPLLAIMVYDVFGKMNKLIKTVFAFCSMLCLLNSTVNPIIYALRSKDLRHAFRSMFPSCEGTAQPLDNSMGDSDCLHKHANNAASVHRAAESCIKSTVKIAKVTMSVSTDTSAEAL
T1 sequence (P21554 whole entry): as the sequence (P21554 whole entry) above

CC[C@H](C)[C@H](NC(=O)c1nn(CCCCCF)c2ccccc12)C(N)=O (single isomer, unassigned) [5-fluoro ADB-PINACA isomer 2]
induction of calcium dye fluorescence [1]: failed to induce significant levels of fluorescence | EC50 values / activity in words [2]: drastic loss of activity | activity in the yeast assay ([2]; side-by-side with mammalian cells, high concentrations (10 μM), listed as 5-fluoro 2-ADB-PINACA isomer 2): lowest activity; also recorded: partial agonism

CCCC(NC(=O)c1nn(Cc2ccc(F)cc2)c2ccccc12)C(N)=O (single isomer, unassigned) [AB-FUBINACA isomer 1]
maximal signaling in dose response [2]: high maximal signaling | pEC50 [2, 7]: 11.00 | EC50 [2, 8]: 4.74e-10 M

CCC(C)(NC(=O)c1nn(Cc2ccc(F)cc2)c2ccccc12)C(N)=O (single isomer, unassigned) [AB-FUBINACA isomer 2]
maximal signaling in dose response [2]: lower response | pEC50 [2, 7]: 9.64

CCC(C(N)=O)N(C)C(=O)c1nn(Cc2ccc(F)cc2)c2ccccc12 (single isomer, unassigned) [AB-FUBINACA isomer 5]
maximal signaling in dose response [2]: lower response | pEC50 [2, 7]: 7.80

O=C(Oc1cccc2cnccc12)c1cn(CCCCCF)c2ccccc12 [5-fluoro PB-22 5-hydroxyisoquinoline isomer]
EC50 [2, 8]: 9.09e-12 M

CC(C)=CCCC(C)CCO (stereo not drawn) [(+)-β-Citronellol]
activity in terpene library screen [2]: found to activate CB1R

CC(C)[C@H](NC(=O)c1cn(Cc2ccccc2)c2ccccc12)C(N)=O [AB-BICA]
EC50 [2, 8]: 5.66e-09 M

CC(C)C(NC(=O)c1nn(Cc2ccc(F)cc2)c2ccccc12)C(N)=O (stereo not drawn) [AB-FUBINACA]
maximal activity [2]: 79–84% | maximal signaling in dose response [2]: high maximal signaling | EC50 ([2]; EC50 (M) Yeast CB1R): 1.13e-11 M | pEC50 ([2]; EC50, dose response): 9.18

CCCCCn1nc(C(=O)NC(C(N)=O)C(C)C)c2ccccc21 (stereo not drawn) [AB-PINACA]
maximal activity [2]: 79–84% | pEC50 [2, 7]: 8.92 | EC50 values / activity in words [2]: low nanomolar range

CCCCC/C=C\C/C=C\C/C=C\C/C=C\CCCC(=O)NCCCl [ACEA, Arachidonyl-2′-chloroethylamide]
Fold Change CB1R ([3]; Strain ST01): 73.2 fold | pEC50 ([3]; Strain ST01, read-out: EC50): 7.14 | pEC50 ([3]; Strain ST02, read-out: EC50): 6.52 | pEC50 ([3]; Strain ST03, read-out: EC50): 6.84 | pEC50 ([3]; Strain ST04, read-out: EC50): 7.02 | pEC50 ([3]; Strain ST05, read-out: EC50): 6.97 | pEC50 ([3]; Strain ST06, read-out: EC50): 7.13 | pEC50 ([3]; Strain ST08, read-out: EC50): 6.99 | pEC50 ([3]; Strain ST09, read-out: EC50): 6.87 | pEC50 ([3]; Strain ST10, read-out: EC50): 6.60 | pEC50 ([3]; Strain ST11, read-out: EC50): 6.80 | pEC50 ([3]; Strain ST12, read-out: EC50): 6.85 | Fold Change CB1R ([3]; Strain ST13): 34.3 fold | pEC50 ([3]; Strain ST13, read-out: EC50): 7.00 | pEC50 ([3]; Strain ST14, read-out: EC50): 6.19 | pEC50 ([3]; Strain ST15, read-out: EC50): 6.22 | pEC50 ([3]; cholesterol intermediate strain ST07, text value, read-out: EC50): 7.19 | pEC50 ([3]; mean over ST01–ST15, read-out: average EC50 value across the intermediate strains): 6.70 | fold signaling (activation) [4]: < 4 fold | pEC50 [4, 9]: 5.89 | fold activation ([5]; truncated receptor): 15 fold | pEC50 ([5]; Δ89-CB1R in yeast, 8 h, n = 3, read-out: EC50, ACEA dose response): 5.30 | Fold Change CB1R [2]: 93.6 ± 15.6 fold | drop in sensitivity compared to the full-length syn-pre-pro construct [2]: 3.8 fold | fold activation [2]: 28 fold | pEC50 [2, 9]: 6.82 | pEC50 ([6]; Syn-pre-pro CB1R in yeast, 8 h, n = 3, read-out: EC50, ACEA dose response): 7.40 | fold activation ([6]; syn-pre-pro modification alone): approximately 7 fold

CCCCCn1nc(C(=O)NC(C(N)=O)C(C)(C)C)c2ccccc21 (stereo not drawn) [ADB-PINACA]
maximal activity [2]: 79–84% | pEC50 [2, 7]: 10.05 | EC50 values / activity in words [2]: low nanomolar range | EC50 [2, 8]: 8.34e-12 M

CCCCCCC(C)(C)c1cc(O)c2c(c1)OC(C)(C)[C@H]1CC=C(CO)C[C@H]21 [HU-211]
relative fluorescence of the ACEA positive control [2]: less than 25%

Cc1c(C(=O)c2ccccc2)c(N)c(-c2ccccc2)n1Cc1ccc(Cl)cc1 [URB447]
relative fluorescence of the ACEA positive control [2, 10]: less than 25%

COc1ccc(C(=O)c2c(C)n(CCN3CCOCC3)c3cc(Br)ccc23)cc1 [WIN54,461]
relative fluorescence of the ACEA positive control [2, 10]: less than 25%

C=C1CCC[C@]2(C)CC[C@@H](C(C)(C)O)C[C@@H]12 [β-Eudesmol]
activity in terpene library screen [2]: found to activate CB1R | signaling in terpene dose response ([2]; dose response, n = 3): showed signaling at high (10 µM) concentrations
